Measured values from patent publication US20170224613A1, “HYDROGEL COMPOSITIONS, METHODS FOR PREPARING THE SAME AND USES THEREOF” (CHONGQING MJ MEDICAL DEVICES CO., LTD., priority 2014, published 2017).

System: healthy volunteers
Experiment: Testing in healthy volunteers: warming sensation, cooling sensation, skin irritation on forearm
Assay type: in vivo, human
Conditions: at 11 wt % based on the total weight of the hydrogel composition
Procedure: In a pilot study to evaluate the hydrogel composition formulations, the different hydrogel prototypes (with a gauze on which the respective hydrogel composition was disposed) of Examples 2 (called gel B in Table 3) and 6 (called gel C in Table 3) and Comparative Example 1 (called gel A in Table 3) were tested on 8 healthy volunteers (M:F=5:3, ages 27-64), respectively. […] Three clinical parameters were considered including the cooling sensation, the warming sensation and irritation/erythema on the applied skin area. In this pilot study, each participant has applied the topical hydrogels (120 mm×100 mm×5 mm; 70 g) on to their forearm (one gel per forearm at a time) and scored their subjective warming and cooling sensations at 5, 10, 20, and 30 min after hydrogel application according to Table 2. The skin irritation reaction was also examined and scored by a researcher according to Table 2.

## COC(=O)c1ccccc1O [Methyl salicylate, methyl salicylate]
  irritation by methyl salicylate in hydrogel: showed irritation
